From ChEMBL document CHEMBL1201862, “PubChem BioAssay data set” (2004)
Activity calls are given as the source filed them.

Columns and labels:
P388 = assay: cells; assay type: functional; settings: Mus musculus
SN12K1 = assay: cells; assay type: functional; settings: Homo sapiens
P388/ADR = assay: cells; assay type: functional; settings: Mus musculus
[1] = target: T1, DNA repair protein RAD52 homolog (Homo sapiens, UniProt P43351); assay type: functional, biochemical
T1 sequence (P43351 whole entry): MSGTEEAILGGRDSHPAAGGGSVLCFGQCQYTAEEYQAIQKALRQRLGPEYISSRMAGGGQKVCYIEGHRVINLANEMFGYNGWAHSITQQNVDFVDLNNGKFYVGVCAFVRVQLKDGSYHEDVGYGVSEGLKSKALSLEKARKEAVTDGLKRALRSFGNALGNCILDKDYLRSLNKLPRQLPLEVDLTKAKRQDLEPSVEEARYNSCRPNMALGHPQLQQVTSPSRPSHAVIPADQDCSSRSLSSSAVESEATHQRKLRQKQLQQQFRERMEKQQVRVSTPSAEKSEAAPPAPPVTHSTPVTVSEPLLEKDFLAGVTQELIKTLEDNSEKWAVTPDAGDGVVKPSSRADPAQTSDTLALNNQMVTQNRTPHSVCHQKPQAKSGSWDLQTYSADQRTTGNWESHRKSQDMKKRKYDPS

[2] = HEK-293T viability loss after treatment – luminescence, T-cell screen hits, cytotoxicity control for TCR NF-kB inhibitor project, dose response (AID 489026); assay type: functional, cell-based;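 further: cells exposed to compound about 14 hours before the viability readout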
Large T antigen = Large T antigen (Simian virus 40, UniProt P03070); assay type: functional, Betapolyomavirus macacae;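 further: Confirmatory-stage PubChem screen for compounds that inhibit SV40 T antigen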
Protein RecA = target: T2, Protein RecA (Mycobacterium tuberculosis, UniProt P9WHJ3); assay: Fluorescence Cell-Free Homogeneous Dose Retest to Identify Inhibitors of RecA-Intein Splicing Activity. [Related pubchem assays (depositor defined):AID2097, AID2223, AID489010, AID492950]; assay type: functional
T2 sequence (P9WHJ3 whole entry): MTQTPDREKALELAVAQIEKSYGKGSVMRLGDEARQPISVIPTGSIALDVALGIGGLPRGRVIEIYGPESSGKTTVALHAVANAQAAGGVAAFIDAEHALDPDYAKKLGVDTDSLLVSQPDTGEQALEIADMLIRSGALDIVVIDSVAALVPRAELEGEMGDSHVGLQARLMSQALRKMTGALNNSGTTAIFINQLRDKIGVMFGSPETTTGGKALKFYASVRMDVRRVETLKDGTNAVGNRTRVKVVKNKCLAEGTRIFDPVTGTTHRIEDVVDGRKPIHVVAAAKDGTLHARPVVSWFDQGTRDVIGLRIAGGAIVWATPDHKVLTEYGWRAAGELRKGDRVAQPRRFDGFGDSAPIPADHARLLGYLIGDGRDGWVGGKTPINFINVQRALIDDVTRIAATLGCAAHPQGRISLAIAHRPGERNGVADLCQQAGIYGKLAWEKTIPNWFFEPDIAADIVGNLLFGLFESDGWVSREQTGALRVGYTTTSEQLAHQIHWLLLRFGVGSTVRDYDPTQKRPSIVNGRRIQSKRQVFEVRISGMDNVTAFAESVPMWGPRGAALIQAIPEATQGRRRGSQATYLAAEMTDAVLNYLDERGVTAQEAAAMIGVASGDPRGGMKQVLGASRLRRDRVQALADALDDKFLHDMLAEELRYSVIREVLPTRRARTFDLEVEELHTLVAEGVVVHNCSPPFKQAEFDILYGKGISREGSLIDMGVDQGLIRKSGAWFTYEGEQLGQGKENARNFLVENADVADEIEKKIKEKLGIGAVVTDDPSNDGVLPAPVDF

[3] = target: T3, Sentrin-specific protease 8 (Homo sapiens, UniProt Q96LD8); assay type: functional
T3 sequence (Q96LD8 whole entry): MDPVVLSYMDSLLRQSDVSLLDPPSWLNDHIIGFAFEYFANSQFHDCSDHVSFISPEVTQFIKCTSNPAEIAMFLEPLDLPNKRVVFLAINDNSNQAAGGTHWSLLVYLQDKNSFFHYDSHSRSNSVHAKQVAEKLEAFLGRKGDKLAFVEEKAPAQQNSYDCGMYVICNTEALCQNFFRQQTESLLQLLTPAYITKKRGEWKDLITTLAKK

[4] = target: T3, Sentrin-specific protease 8; assay type: functional; remark: listed apart in the source
[5] = target: T4, Replicative DNA helicase DnaB (Mycobacterium tuberculosis, UniProt P9WMR3); assay: DnaB intein splicing inhibitors, dose response, biochemical, cell-free fluorescence (AID 449749); assay type: functional
T4 sequence (P9WMR3 whole entry): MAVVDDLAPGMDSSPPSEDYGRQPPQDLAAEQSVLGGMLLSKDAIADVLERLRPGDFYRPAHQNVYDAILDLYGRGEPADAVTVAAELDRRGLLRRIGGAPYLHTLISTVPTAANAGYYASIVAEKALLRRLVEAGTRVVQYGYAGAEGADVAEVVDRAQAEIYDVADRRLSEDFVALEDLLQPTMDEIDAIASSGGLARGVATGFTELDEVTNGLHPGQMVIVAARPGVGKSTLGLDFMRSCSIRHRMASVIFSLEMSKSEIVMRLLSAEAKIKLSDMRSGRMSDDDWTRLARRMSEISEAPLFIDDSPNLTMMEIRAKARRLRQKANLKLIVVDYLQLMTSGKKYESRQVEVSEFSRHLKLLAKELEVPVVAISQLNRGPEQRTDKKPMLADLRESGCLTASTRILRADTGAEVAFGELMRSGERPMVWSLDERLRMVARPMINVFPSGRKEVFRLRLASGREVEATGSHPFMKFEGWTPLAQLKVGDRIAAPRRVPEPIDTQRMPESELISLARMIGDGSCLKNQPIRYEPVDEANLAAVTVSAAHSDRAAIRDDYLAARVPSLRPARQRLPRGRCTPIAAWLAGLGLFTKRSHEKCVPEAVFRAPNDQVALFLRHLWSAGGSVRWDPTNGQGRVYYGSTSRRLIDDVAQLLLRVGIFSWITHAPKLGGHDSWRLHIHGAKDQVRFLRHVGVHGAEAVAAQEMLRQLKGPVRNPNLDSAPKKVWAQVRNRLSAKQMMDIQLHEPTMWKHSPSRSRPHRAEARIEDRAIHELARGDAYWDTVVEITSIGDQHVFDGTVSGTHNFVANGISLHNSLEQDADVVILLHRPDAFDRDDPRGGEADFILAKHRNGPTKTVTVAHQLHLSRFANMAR

cells = assay type: functional, cell-based
[6] = target: Dual specificity tyrosine-phosphorylation-regulated kinase 1A (Rattus norvegicus, UniProt Q63470); assay type: biochemical, Homo sapiens
Cytochrome P450 2C9 = Cytochrome P450 2C9 (Homo sapiens, UniProt P11712)
Cytochrome P450 2C19 = Cytochrome P450 2C19 (Homo sapiens, UniProt P33261); assay: Cytochrome panel assay with activity outcomes. Panel member name: p450-cyp2c19 Compounds with AC50 equal or less than 10 uM are considered active; assay type: functional; settings: read-out: AC50
Cytochrome P450 3A4 = Cytochrome P450 3A4 (Homo sapiens, UniProt P08684);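 further: CYP3A4 tested as one member of a cytochrome P450 panel screen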
[7] = target: Induced myeloid leukemia cell differentiation protein Mcl-1 (Homo sapiens, UniProt Q07820); assay type: functional
[8] = DRD fibroblast viability loss – cell-based, non-viral oncogenic, luminescence, dose response (AID 1934); assay type: functional; settings: Homo sapiens
BJ [9] = assay: BJ-TERT-LT-ST fibroblast viability loss – cell-based, RAS-independent, luminescence, dose response (AID 1935); assay type: functional; settings: Homo sapiens;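 further: BJ fibroblasts immortalized with TERT plus LT and ST oncogenes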
BJ [10] = assay: cells; assay type: functional, cell-based; settings: Homo sapiens
BJ [11] = assay: BJ-TERT fibroblast viability loss – cell-based, RAS-independent, luminescence, dose response (AID 1933); assay type: functional; settings: Homo sapiens

Sequence of Large T antigen (P03070 whole entry): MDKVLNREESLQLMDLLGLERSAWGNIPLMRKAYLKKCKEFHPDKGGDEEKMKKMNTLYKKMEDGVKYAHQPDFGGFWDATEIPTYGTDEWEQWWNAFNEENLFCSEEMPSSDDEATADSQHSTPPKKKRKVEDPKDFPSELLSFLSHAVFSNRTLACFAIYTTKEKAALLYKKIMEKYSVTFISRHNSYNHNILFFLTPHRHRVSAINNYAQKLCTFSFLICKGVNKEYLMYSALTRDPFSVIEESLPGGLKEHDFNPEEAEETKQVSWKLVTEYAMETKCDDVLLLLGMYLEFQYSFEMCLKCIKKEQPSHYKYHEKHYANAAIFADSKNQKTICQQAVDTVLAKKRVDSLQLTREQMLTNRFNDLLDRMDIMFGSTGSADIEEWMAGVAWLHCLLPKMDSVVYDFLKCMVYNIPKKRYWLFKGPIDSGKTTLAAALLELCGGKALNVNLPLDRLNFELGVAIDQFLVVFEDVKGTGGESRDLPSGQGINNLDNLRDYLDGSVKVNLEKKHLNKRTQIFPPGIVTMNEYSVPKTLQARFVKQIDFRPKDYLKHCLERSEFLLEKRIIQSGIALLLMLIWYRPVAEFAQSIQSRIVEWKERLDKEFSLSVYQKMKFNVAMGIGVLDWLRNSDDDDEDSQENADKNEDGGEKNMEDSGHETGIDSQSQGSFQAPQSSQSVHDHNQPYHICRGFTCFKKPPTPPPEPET
Sequence of Induced myeloid leukemia cell differentiation protein Mcl-1 (Q07820 whole entry): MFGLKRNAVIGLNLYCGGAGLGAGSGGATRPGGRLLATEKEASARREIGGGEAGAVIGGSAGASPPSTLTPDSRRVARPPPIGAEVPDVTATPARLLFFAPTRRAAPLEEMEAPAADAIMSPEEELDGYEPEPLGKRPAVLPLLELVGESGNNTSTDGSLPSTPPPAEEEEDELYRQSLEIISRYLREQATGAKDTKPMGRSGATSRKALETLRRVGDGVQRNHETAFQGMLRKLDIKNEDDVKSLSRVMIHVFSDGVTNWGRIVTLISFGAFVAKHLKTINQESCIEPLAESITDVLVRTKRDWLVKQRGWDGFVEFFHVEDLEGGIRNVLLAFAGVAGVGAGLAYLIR
Sequence of Cytochrome P450 2C19 (P33261 whole entry): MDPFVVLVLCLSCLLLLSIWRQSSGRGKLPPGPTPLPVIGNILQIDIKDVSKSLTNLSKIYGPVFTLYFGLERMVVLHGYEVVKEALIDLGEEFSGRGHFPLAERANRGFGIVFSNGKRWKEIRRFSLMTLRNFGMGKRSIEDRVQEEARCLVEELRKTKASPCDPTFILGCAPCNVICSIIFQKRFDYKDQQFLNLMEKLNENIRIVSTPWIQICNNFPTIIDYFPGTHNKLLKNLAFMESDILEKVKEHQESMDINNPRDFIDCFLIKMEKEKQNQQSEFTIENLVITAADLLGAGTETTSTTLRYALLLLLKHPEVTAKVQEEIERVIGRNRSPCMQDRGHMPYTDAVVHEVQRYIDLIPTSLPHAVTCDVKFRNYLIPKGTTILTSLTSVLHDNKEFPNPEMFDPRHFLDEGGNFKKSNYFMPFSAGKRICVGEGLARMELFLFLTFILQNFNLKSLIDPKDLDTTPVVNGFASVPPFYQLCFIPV
Sequence of Cytochrome P450 3A4 (P08684 whole entry): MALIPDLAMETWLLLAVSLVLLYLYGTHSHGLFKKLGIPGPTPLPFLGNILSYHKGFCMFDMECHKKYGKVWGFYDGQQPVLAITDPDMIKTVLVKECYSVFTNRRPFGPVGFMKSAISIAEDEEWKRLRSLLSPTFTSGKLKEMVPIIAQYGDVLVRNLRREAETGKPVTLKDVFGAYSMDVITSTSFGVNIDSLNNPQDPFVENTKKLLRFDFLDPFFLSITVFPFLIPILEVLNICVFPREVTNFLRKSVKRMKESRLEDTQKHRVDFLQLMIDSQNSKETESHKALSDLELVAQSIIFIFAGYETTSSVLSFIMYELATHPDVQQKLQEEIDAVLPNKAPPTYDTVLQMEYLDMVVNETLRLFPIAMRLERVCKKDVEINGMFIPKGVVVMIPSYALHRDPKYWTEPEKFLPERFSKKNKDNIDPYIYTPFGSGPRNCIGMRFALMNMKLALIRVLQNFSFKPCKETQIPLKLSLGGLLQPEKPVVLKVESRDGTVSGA
Sequence of Cytochrome P450 2C9 (P11712 whole entry): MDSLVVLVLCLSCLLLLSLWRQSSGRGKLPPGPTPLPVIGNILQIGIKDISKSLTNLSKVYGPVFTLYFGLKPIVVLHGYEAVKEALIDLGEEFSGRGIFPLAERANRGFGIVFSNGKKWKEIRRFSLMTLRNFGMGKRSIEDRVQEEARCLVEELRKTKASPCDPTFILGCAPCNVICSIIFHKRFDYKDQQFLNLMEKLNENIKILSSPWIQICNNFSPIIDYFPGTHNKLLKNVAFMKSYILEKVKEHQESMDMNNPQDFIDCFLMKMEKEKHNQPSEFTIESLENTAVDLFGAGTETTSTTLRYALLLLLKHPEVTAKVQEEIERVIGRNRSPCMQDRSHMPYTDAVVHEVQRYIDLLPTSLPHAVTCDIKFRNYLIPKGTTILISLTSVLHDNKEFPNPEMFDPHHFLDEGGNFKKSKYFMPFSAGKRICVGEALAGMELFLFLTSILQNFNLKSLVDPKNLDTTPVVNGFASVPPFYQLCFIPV

COc1ccccc1/C=C1\CCC(CN(C)C)C1=O (stereo not given)
GI50 (P388): 0.608 µM (active) | GI50 (SN12K1): 2.05 µM (inactive) | GI50 (P388/ADR): 0.568 µM (active)

COC(=O)C1OC(Oc2cc(O)c3c(=O)cc(-c4ccc(O)cc4)oc3c2)C(O)C(O)C1O (stereo not given)
GI50 (SN12K1): > 100 µM (inactive) | GI50 (P388/ADR): > 35.5 µM (inactive)

CN/C(=C/[N+](=O)[O-])NCCSCc1ccc(CN(C)C)o1
AC50 [1]: 18 µM (active)

Cc1ccccc1NS(=O)(=O)c1ccc(N2CCCC2=O)cc1
IC50 [2]: > 80 µM (inactive)

Cc1nc(C)c(-c2csc(Nc3ccc(N)cc3)n2)s1
IC50 (Large T antigen): 11.5 µM (active)

O=C1NC(=S)N(C2CC2)C(=O)/C1=C/NNc1ccccc1
IC50 (Large T antigen): 8.87 µM (active)

COc1cccc(N/C([S-])=C(/C(=O)c2ccc(OC(F)F)cc2)[n+]2ccccc2)c1
EC50 (Protein RecA): 8.62 µM (active) | IC50 [3]: 3.93 µM (active) | IC50 [4]: 6 µM (active) | AC50 [5]: 23.9 µM (active)

Cc1c2cc[n+](C)cc2c(C)c2c1[nH]c1ccc(O)cc12 [ELLIPTINIUM ACETATE]
GI50 (P388): 0.131 µM (active) | GI50 (SN12K1): 2.98 µM (inactive) | GI50 (P388/ADR): 1.92 µM (inactive)

CCOc1cc(CNc2ccc(N3CCN(C(C)=O)CC3)cc2)cc(Br)c1OC
IC50 (Large T antigen): 8.75 µM (active)

CN(C)CCNC(=O)c1cccc(-c2cnc3c(NC=O)cc(/C=C/c4ccccc4)cn23)c1
AC50 [1]: 2.21 µM (active)

CCCCC1=C(Br)C(=C(Br)Br)OC1=O
GI50 (P388): 0.505 µM (active) | GI50 (SN12K1): 1.96 µM (inactive) | GI50 (P388/ADR): 0.443 µM (active)

CC(NC(=O)C12CC3CC(CC(O)(C3)C1)C2)c1ccc(Cl)cc1Cl (stereo not given)
EC50 (cells): > 350 µM (not active)

COc1ccc(-c2csc(N=C(N)N)n2)cc1
AC50 [6]: 0.541 µM (active)

COc1cccc2c1C(=O)c1c(O)c3c(c(O)c1C2=O)C[C@@](O)(C(C)=O)C[C@@H]3OC1CC(N(Cc2ccccc2)Cc2ccccc2)C(O)C(C)O1 (stereo not given in full)
GI50 (P388): 0.675 µM (active) | GI50 (SN12K1): 2.92 µM (inactive) | GI50 (P388/ADR): 1.57 µM (inactive)

Cc1nc(NC(N)=Nc2ccccc2)nc2ccccc12
AC50 (Cytochrome P450 2C9): inconclusive | AC50 (Cytochrome P450 2C19): 39.8 µM (inconclusive) | AC50 (Cytochrome P450 3A4): 39.8 µM (inconclusive)

CCCCC(NC(=O)CC)C(=O)O (stereo not given)
GI50 (P388): > 100 µM (inactive) | GI50 (SN12K1): > 100 µM (inactive) | GI50 (P388/ADR): > 100 µM (inactive)

CC(C(=O)c1ccc(-c2ccccc2)cc1)[n+]1cccc(NC(=O)c2ccccc2)c1 (stereo not given)
AC50 [1]: 19.1 µM (active)

COc1ccc(NC(=O)/C(C#N)=C\c2ccc(-c3cccc(C(=O)O)c3C)o2)cc1
AC50 [6]: 1.7 µM (active)

CCOc1cc(/C=N/Nc2nc(-c3cccs3)c(NC(C)=O)s2)ccc1O
IC50 (Large T antigen): 30.5 µM (active) | IC50 [7]: 3.51 µM (active)

C#CCn1c(=O)c(C#N)c(O)c2cc3ccccc3nc21
GI50 (P388): > 100 µM (inactive) | GI50 (SN12K1): > 100 µM (inactive) | GI50 (P388/ADR): > 100 µM (inactive)

Cc1nc2c(ccc3nsnc32)[nH]1
AC50 [6]: 5.91 µM (active)

C[C@H]1C/C=C/[C@H]2[C@@H]3O[C@]3(C)[C@@H](C)[C@H]3[C@H](Cc4ccccc4)NC(=O)[C@]32OC(=O)O/C=C/[C@@](C)(O)C1=O [CYTOCHALASIN E]
GI50 (P388): 0.0166 µM (active) | GI50 (SN12K1): < 0.01 µM (active)

Cc1ccc(/C=N/NC(=O)c2c(C)nc3ccc(Br)cn23)cc1
IC50 [2]: > 80 µM (inactive)

OC(CN1CCNCC1)Cn1c2ccccc2c2ccccc21 (stereo not given)
AC50 [1]: 20.7 µM (active)

O=C1NC(c2cccc3ccccc23)Nc2ccc(O)cc21 (stereo not given)
GI50 (P388): 19 µM (inactive) | GI50 (SN12K1): 36.7 µM (inactive) | GI50 (P388/ADR): 24.8 µM (inactive)

COc1ccc(Cl)cc1NC(=O)CN(C)CC(=O)Nc1ccccc1N1CCOCC1
EC50 [8]: 2.55 µM (active) | EC50 (BJ [9]): 30.7 µM (active) | IC50 [2]: 70.8 µM (inactive) | EC50 (BJ [10]): 37.1 µM (active) | EC50 (BJ [11]): 3.04 µM (active)

COC(=O)c1ccc(C)cc1C1CN=NC12Cc1cc(C)ccc1C2=O (stereo not given)
IC50 [3]: 13.9 µM (active) | IC50 [4]: 20.9 µM (active)

O=S(=O)(O)c1cccc(N=Nc2c(O)ccc3ccccc23)c1
AC50 [6]: 5.88 µM (active)
